From patent publication US12036190B2, “Methods and compositions for the treatment of cytoplasmic glycogen storage disorders” (Duke University, priority 2015, dated 2024)
“Also recorded” adds a separate entry of the source. Read-outs that look alike come from different tables or passages of the source.

Tests used:
GAA knockout (KO) mice = assay: β2 agonist with ERT (rhGAA) in GAA-KO mice with Pompe disease; details: for glycogen content in skeletal muscle: β2 agonist added to ERT, versus ERT alone; for CI-MPR (M6PR) expression: muscle
[1] = test system: patients with late-onset Pompe disease; details: adjunctive to ERT; cited from earlier work
[2] = test system: G6pc siRNA knockdown AML-12 cells; details: for Lipid Reduction Scoring, High dose / Lipid Reduction Scoring, Medium dose / Lipid Reduction Scoring, Low dose: Oil Red O, duplicate; for Lipid Reduction Scoring, Medium dose: medium concentration of Table 6; for Lipid Reduction Scoring, Low dose: low concentration of Table 6
From the text: In brief, a wide array of drugs was selected, including those that modulate autophagy via the […] pathway, those that do so through AMPK modulation to act through mTORC1, and those using yet-undetermined pathways. Analysis of additional literature led to the selection of three concentrations of each compound to be tested in cell culture using the G6pc siRNA knockdown AML-12 mouse hepatocyte cell line model of GSD Ia as an initial screen for the drugs.
Drug concentrations were chosen based on similarity to published concentrations in either cell culture models resulting in target effects or autophagy, or in vivo extracellular fluid concentrations following animal treatments. The latter case is noted with the fluid type. Concentrations used in our in vitro AML-12 cell culture treatments are listed as the low, medium, and high concentrations that were screened.
The first test using AML-12 cells was the Oil Red 0 stain to examine the presence of lipid vacuoles in cells given the treatments.
G6pc siRNA knockdown AML-12 cells were given three different doses of each drug treatment. After 72 hours of growth, the media was changed to ketogenic media and appropriate quantities of each drug were added. This was performed in duplicate. Oil Red 0 staining was then performed and bright field images acquired at 10× magnification.
Drug treatments at three doses each were performed on G6pc siRNA knockdown AML-12 cells. Following oil red 0 staining the whole plates were evaluated visually for reductions in lipid accumulation. Treatments were performed in duplicate. —/0/+/++/+++ indicates the degree of improvement, or lipid reduction, caused by the treatment, with + indicating positive benefits.

G6pc−/− knockout mice = assay: Bezafibrate treatment of G6pc−/− mice; assay type: in vivo
Procedure: G6pc−/− knockout mice were administered intraperitoneal injections of bezafibrate 25 mg/kg/day suspended in 10% DMSO/90% PBS IP for 3 days.

HepG2 cells = assay: LC3-II in HepG2 cells after clenbuterol; assay type: cell-based
From the text: (§1) Asterisk indicates p<0.05.
(§2) Thus, clenbuterol, a long-acting β-agonist with proven safety for long-term treatment of mice, represents a leading candidate among drugs to be considered for the manipulation of autophagy in GSD Ia (Table 2).

[3] = test system: mouse primary hepatocytes; assay: LC3-II in mouse primary hepatocytes after clenbuterol; assay type: cell-based; details: 24 hours
From the text: as §1, §2

[4] = test system: murine model for hepatosteatosis; assay type: in vivo, mouse
autophagy = details: Table 4; drugs known to enhance autophagy; cited from earlier work
[5] = test system: G6pc knockdown AML-12 cells; assay: LC3 Western blot of drug-treated G6pc knockdown AML-12 cells; assay type: cell-based, mouse; details: 24 hours; conditions with optimal effects in the Oil Red O screen
Procedure: FIG. 27 illustrates LC3 Western blot of drug-treated G6pc knockdown AML-12 cells. Western blotting was performed on AML-12 cells incubated for 24 hours with the described drug conditions. LC3 was quantified and normalized against each condition's β-actin protein quantification.
In addition to Oil Red O staining, cells were analyzed via Western blots for restored LC3 expression for each drug, under the conditions that had optimal effects in the Oil Red O screen (FIG. 27). Since the Western antibody previously used successfully for rapamycin treatment LC3 blots had been discontinued by the manufacturer, we tested two alternative antibodies and chose the one from Cell Signaling Technologies because it gave the strongest signal-to-noise ratio under our experimental conditions.
Western blotting was performed on AML-12 cells incubated for 24 hours with the described drug conditions. LC3 was quantified and normalized against each condition's β-actin protein quantification.

Compound | Lipid Reduction Scoring, High dose ([2]; high concentration of Table 6) | Lipid Reduction Scoring, Medium dose [2] | Effect (autophagy) | Lipid Reduction Scoring, Low dose [2] | other results
CC(C)(C)NCC(O)c1ccc(O)c(CO)c1 (centres unmarked) [Albuterol, albuterol] |  |  |  |  | glycogen content in skeletal muscle (GAA knockout (KO) mice): lower glycogen content; 6 minute walk test performance [1]: improve the 6 minute walk test performance
CC(C)(Oc1ccc(CCNC(=O)c2ccc(Cl)cc2)cc1)C(=O)O [Bezafibrate, bezafibrate] | ++ | + |  |  | kidney weight as a percentage of total body weight (G6pc−/− knockout mice; bezafibrate 25 mg/kg/day IP, p<0.046): very small but quantitatively significant increase; blood glucose level (G6pc−/− knockout mice; bezafibrate-treated affected mice, below threshold of detection): < 20 mg/dL
CC(C)(C)NCC(O)c1cc(Cl)c(N)c(Cl)c1 (centres unmarked) [Clenbuterol, clenbuterol] |  |  |  |  | muscle hypertrophy (GAA knockout (KO) mice; GAA-KO mice): induce muscle hypertrophy; CI-MPR (M6PR) expression (GAA knockout (KO) mice; GAA-KO mice): enhance CI-MPR expression; CI-MPR (M6PR) expression (GAA knockout (KO) mice; GAA-KO mice, listed as clenbuterol): increase the expression of CI-MPR; also recorded: increased CI-MPR expression; also recorded: enhancing M6PR expression; uptake of rhGAA (GAA knockout (KO) mice; preclinical experiments): increased the uptake of rhGAA; glycogen content in skeletal muscle (GAA knockout (KO) mice): lower glycogen content; also recorded: decreased glycogen storage; lowest concentration at which LC3-II is increased (HepG2 cells; 24 hours): 300 nM; LC3-II (HepG2 cells; 24 hours after addition): increases LC3-II; LC3-II [3]: increases LC3-II; autophagy ([4]; murine model for hepatosteatosis): induce autophagy; hepatosteatosis ([4]; preclinical experiments): reduced hepatosteatosis
CN(C)C(=N)N=C(N)N [Metformin] | 0 |  | Activated autophagy, activated AMPK in vitro | + | 
CN(C)c1ccc2nc3ccc(=[N+](C)C)cc-3sc2c1 [Methylene Blue, Methylene blue] | − − − | − − | Activated autophagy, inhibited hepatosteatosis | + | 
CC#C[C@]1(O)CC[C@H]2[C@@H]3CCC4=CC(=O)CCC4=C3[C@@H](c3ccc(N(C)C)cc3)C[C@@]21C [Mifepristone] | ++ | + (Spotty ++) | Activated autophagy, inhibited FXR | + | LC3 normalized against β-actin (Western blot) [5]: increase in LC3 autophagic marker; cell survival, High dose [2]: Great survival
Oc1ccc(C=Cc2cc(O)cc(O)c2)cc1 [Resveratrol] | − − − | 0 (Spotty ++) | Enhanced FAO , reduced | + | 
OC[C@H]1O[C@H](O[C@H]2O[C@H](CO)[C@@H](O)[C@H](O)[C@H]2O)[C@H](O)[C@@H](O)[C@@H]1O [Trehalose] |  | − − | Stimulated autophagy | + | cell survival, High dose [2]: High death
COc1ccc(CCN(C)CCCC(C#N)(c2ccc(OC)c(OC)c2)C(C)C)cc1OC (centres unmarked) [Verapamil] | − − | + | Induced autophagy, reduced cytosolic calcium |  | cell survival, High dose ([2]; high concentration of Table 6): Very high death
O=C(O)CCCCC1CCSS1 (stereo not drawn) [α-Lipoic acid, α-lipoic acid] | 0 |  | Activated autophagy, reduced intercellular | + | 
Cc1c(C)c2c(c(C)c1O)CC[C@@](C)(CCC[C@H](C)CCC[C@H](C)CCCC(C)C)O2 [α-Tocopherol] |  | − (Spotty ++) |  | 0 (Spotty +) | 
Thyroid hormone |  |  | Increased autophagy, reduced steatosis |  | 
